Experimental data published in ChEMBL document CHEMBL1201862, “PubChem BioAssay data set” (2004).
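Method: 48-hour compound exposure of cells in 96-well plates, five concentrations, linear interpolation of endpoints. The concentration for 50% growth inhibition is given as GI50.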 Active and inactive are the calls of the source. Rule as the data show it: active = GI50 up to about 1.1 µM and inactive = higher.

Columns and labels:
Assay in all cases: NCI-60 cell line screen, 48 h
[1] = test system: ACHN
[2] = test system: CCRF-CEM
[3] = test system: EKVX
[4] = test system: HOP-62
[5] = test system: Hs-578T
[6] = test system: K562
[7] = test system: LOX IMVI
[8] = test system: MCF7
[9] = test system: MOLT-4
[10] = test system: NCI-H522
[11] = test system: NCI/ADR-RES
[12] = test system: OVCAR-3
[13] = test system: OVCAR-4
[14] = test system: SF-539
[15] = test system: SK-MEL-5
[16] = test system: SK-OV-3
[17] = test system: SNB-19
[18] = test system: SNB-75
[19] = test system: SW-620

Structure (SMILES): Cn1cnc2c1c(=O)n(CCNCCO)c(=O)n2C
- GI50 [1]: > 100 µM (inactive)
- GI50 [2]: > 100 µM (inactive)
- GI50 [3]: > 100 µM (inactive)
- GI50 [4]: > 100 µM (inactive)
- GI50 [5]: > 100 µM (inactive)
- GI50 [6]: > 100 µM (inactive)
- GI50 [7]: > 100 µM (inactive)
- GI50 [8]: > 100 µM (inactive)
- GI50 [9]: > 100 µM (inactive)
- GI50 [10]: > 100 µM (inactive)
- GI50 [11]: > 100 µM (inactive)
- GI50 [12]: > 100 µM (inactive)
- GI50 [13]: > 100 µM (inactive)
- GI50 [14]: > 100 µM (inactive)
- GI50 [15]: > 100 µM (inactive)
- GI50 [16]: > 100 µM (inactive)
- GI50 [17]: > 100 µM (inactive)
- GI50 [18]: > 100 µM (inactive)
- GI50 [19]: > 100 µM (inactive)

Structure (SMILES): CC(Oc1ccccc1)C(=O)NNC(=O)OC(C)(C)C (stereo not drawn)
- GI50 [1]: > 100 µM (inactive)
- GI50 [2]: > 100 µM (inactive)
- GI50 [3]: > 100 µM (inactive)
- GI50 [4]: > 100 µM (inactive)
- GI50 [5]: > 100 µM (inactive)
- GI50 [6]: > 100 µM (inactive)
- GI50 [7]: > 100 µM (inactive)
- GI50 [8]: > 100 µM (inactive)
- GI50 [9]: > 100 µM (inactive)
- GI50 [10]: > 100 µM (inactive)
- GI50 [11]: > 100 µM (inactive)
- GI50 [12]: > 100 µM (inactive)
- GI50 [13]: > 100 µM (inactive)
- GI50 [14]: > 100 µM (inactive)
- GI50 [15]: > 100 µM (inactive)
- GI50 [16]: > 100 µM (inactive)
- GI50 [17]: > 100 µM (inactive)
- GI50 [18]: > 100 µM (inactive)
- GI50 [19]: > 100 µM (inactive)

Structure (SMILES): OCCNCNc1nc(NCNCCO)nc(N(CNCCO)CNCCO)n1
- GI50 [1]: 27 µM (inactive)
- GI50 [2]: 12.2 µM (inactive)
- GI50 [3]: 25.3 µM (inactive)
- GI50 [4]: 19.5 µM (inactive)
- GI50 [5]: 32 µM (inactive)
- GI50 [6]: 19.9 µM (inactive)
- GI50 [7]: 17 µM (inactive)
- GI50 [8]: 28.1 µM (inactive)
- GI50 [9]: 23.2 µM (inactive)
- GI50 [10]: 21.3 µM (inactive)
- GI50 [11]: 24.4 µM (inactive)
- GI50 [12]: 22.6 µM (inactive)
- GI50 [13]: 25.9 µM (inactive)
- GI50 [14]: 19.6 µM (inactive)
- GI50 [15]: 15.1 µM (inactive)
- GI50 [16]: > 43.7 µM (inactive)
- GI50 [17]: 17.1 µM (inactive)
- GI50 [18]: 24.7 µM (inactive)
- GI50 [19]: 19.8 µM (inactive)

Structure (SMILES): CCN(C(=O)N[C@@H](C)C(=O)N[C@@H](Cc1ccccc1)C(=O)OC)c1ccccc1
- GI50 [1]: > 100 µM (inactive)
- GI50 [2]: > 100 µM (inactive)
- GI50 [3]: > 100 µM (inactive)
- GI50 [4]: > 100 µM (inactive)
- GI50 [5]: 70.6 µM (inactive)
- GI50 [6]: 32 µM (inactive)
- GI50 [7]: 31.2 µM (inactive)
- GI50 [8]: > 100 µM (inactive)
- GI50 [9]: > 100 µM (inactive)
- GI50 [10]: 71.6 µM (inactive)
- GI50 [11]: > 100 µM (inactive)
- GI50 [12]: 54.2 µM (inactive)
- GI50 [13]: 68.4 µM (inactive)
- GI50 [14]: 34.5 µM (inactive)
- GI50 [15]: 95.9 µM (inactive)
- GI50 [16]: > 100 µM (inactive)
- GI50 [17]: > 100 µM (inactive)
- GI50 [18]: 54 µM (inactive)
- GI50 [19]: > 100 µM (inactive)

Structure (SMILES): CCc1c(O)cc(=O)oc1-c1ccc(OC)c(OC)c1
- GI50 [1]: > 100 µM (inactive)
- GI50 [2]: > 100 µM (inactive)
- GI50 [3]: > 100 µM (inactive)
- GI50 [4]: > 100 µM (inactive)
- GI50 [5]: > 100 µM (inactive)
- GI50 [6]: > 100 µM (inactive)
- GI50 [7]: > 100 µM (inactive)
- GI50 [8]: > 100 µM (inactive)
- GI50 [9]: > 100 µM (inactive)
- GI50 [10]: 64.1 µM (inactive)
- GI50 [11]: > 100 µM (inactive)
- GI50 [12]: > 100 µM (inactive)
- GI50 [13]: > 100 µM (inactive)
- GI50 [14]: > 100 µM (inactive)
- GI50 [15]: > 100 µM (inactive)
- GI50 [16]: > 100 µM (inactive)
- GI50 [17]: > 100 µM (inactive)
- GI50 [18]: 72.6 µM (inactive)
- GI50 [19]: > 100 µM (inactive)

Structure (SMILES): CC(C)OP(=O)(CCCCCCCCC/C=C/c1ccc2c(c1)OCCOCCOCCOCCO2)OC(C)C
- GI50 [1]: 3.48 µM (inactive)
- GI50 [2]: 2.71 µM (inactive)
- GI50 [3]: 3.79 µM (inactive)
- GI50 [4]: 2.42 µM (inactive)
- GI50 [5]: 2.45 µM (inactive)
- GI50 [6]: 6.37 µM (inactive)
- GI50 [7]: 2.16 µM (inactive)
- GI50 [8]: 3.23 µM (inactive)
- GI50 [9]: 3.04 µM (inactive)
- GI50 [10]: 2.76 µM (inactive)
- GI50 [11]: 2.98 µM (inactive)
- GI50 [12]: 2.61 µM (inactive)
- GI50 [13]: 4.8 µM (inactive)
- GI50 [14]: 2.62 µM (inactive)
- GI50 [15]: 2.74 µM (inactive)
- GI50 [16]: 3.19 µM (inactive)
- GI50 [17]: 3.41 µM (inactive)
- GI50 [18]: 3.01 µM (inactive)
- GI50 [19]: 3.82 µM (inactive)

Structure (SMILES): CN(C)CCNc1ccc2c(=O)n(CCN(C)C)c(=O)n3c4ccccc4c(=O)c1c23
- GI50 [1]: 0.0161 µM (active)
- GI50 [2]: < 0.01 µM (active)
- GI50 [3]: 0.174 µM (active)
- GI50 [4]: 0.0185 µM (active)
- GI50 [5]: 0.305 µM (active)
- GI50 [6]: 0.0133 µM (active)
- GI50 [7]: 0.0624 µM (active)
- GI50 [8]: < 0.0174 µM (active)
- GI50 [9]: < 0.01 µM (active)
- GI50 [10]: 0.0689 µM (active)
- GI50 [11]: 0.14 µM (active)
- GI50 [12]: 0.218 µM (active)
- GI50 [13]: 0.27 µM (active)
- GI50 [14]: 0.0321 µM (active)
- GI50 [15]: 0.0427 µM (active)
- GI50 [16]: < 0.0392 µM (active)
- GI50 [17]: 0.137 µM (active)
- GI50 [18]: 0.0513 µM (active)
- GI50 [19]: < 0.0208 µM (active)
